Source: BindingDB's records for doi:10.1016/S0960-894X(96)00248-X (1996)

Experiment: Inhibitory activity against gastrin receptor

IC50	Structure (SMILES)
25 nM	Cc1cccc(NC(=O)NC2N=C(c3cccc(OCC(=O)NCCC(=O)NCCSCc4csc(N=C(N)N)n4)c3)c3ccccc3N(C)C2=O)c1 (centres undefined) [N-[2-(2-Guanidino-thiazol-4-ylmethylsulfanyl)-ethyl]-3-(2-{3-[1-methyl-2-oxo-3-(3-m-tolyl-ureido)-2,3-dihydro-1H-benzo[e][1,4]diazepin-5-yl]-phenoxy}-acetylamino)-propionamide]
75 nM	Cc1cccc(NC(=O)NC2N=C(c3ccccc3)c3ccccc3N(CC(=O)NCCC(=O)NCCSCc3csc(N=C(N)N)n3)C2=O)c1 (centres undefined) [N-[2-(2-Guanidino-thiazol-4-ylmethylsulfanyl)-ethyl]-3-{2-[2-oxo-5-phenyl-3-(3-m-tolyl-ureido)-2,3-dihydro-benzo[e][1,4]diazepin-1-yl]-acetylamino}-propionamide]
240 nM	CN1C(=O)[C@H](NC(=O)Nc2cccc(CC(=O)NCCCC(=O)NCCSCc3csc(N=C(N)N)n3)c2)N=C(c2ccccc2)c2ccccc21 [N-[2-(2-Guanidino-thiazol-4-ylmethylsulfanyl)-ethyl]-4-(2-{3-[3-((R)-1-methyl-2-oxo-5-phenyl-2,3-dihydro-1H-benzo[e][1,4]diazepin-3-yl)-ureido]-phenyl}-acetylamino)-butyramide]
190 nM	Cc1cccc(NC(=O)NC2N=C(c3ccccc3)c3ccccc3N(CC(=O)NCCCC(=O)NCCSCc3csc(N=C(N)N)n3)C2=O)c1 (centres undefined) [N-[2-(2-Guanidino-thiazol-4-ylmethylsulfanyl)-ethyl]-4-{2-[2-oxo-5-phenyl-3-(3-m-tolyl-ureido)-2,3-dihydro-benzo[e][1,4]diazepin-1-yl]-acetylamino}-butyramide]
12 nM	Cc1cccc(NC(=O)NC2N=C(c3cccc(OCC(=O)NCC(=O)NCCSCc4csc(N=C(N)N)n4)c3)c3ccccc3N(C)C2=O)c1 (centres undefined) [N-{[2-(2-Guanidino-thiazol-4-ylmethylsulfanyl)-ethylcarbamoyl]-methyl}-2-{3-[1-methyl-2-oxo-3-(3-m-tolyl-ureido)-2,3-dihydro-1H-benzo[e][1,4]diazepin-5-yl]-phenoxy}-acetamide]

Second part, the molecule before the results:

Structure (SMILES)	IC50
CN1C(=O)[C@H](NC(=O)Nc2cccc(CC(=O)NCCSCc3csc(N=C(N)N)n3)c2)N=C(c2ccccc2)c2ccccc21 [N-[2-(2-Guanidino-thiazol-4-ylmethylsulfanyl)-ethyl]-2-{3-[3-((R)-1-methyl-2-oxo-5-phenyl-2,3-dihydro-1H-benzo[e][1,4]diazepin-3-yl)-ureido]-phenyl}-acetamide]	168 nM
CN1C(=O)[C@H](NC(=O)Nc2cccc(CC(=O)NCCC(=O)NCCSCc3csc(N=C(N)N)n3)c2)N=C(c2ccccc2)c2ccccc21 [N-[2-(2-Guanidino-thiazol-4-ylmethylsulfanyl)-ethyl]-3-(2-{3-[3-((R)-1-methyl-2-oxo-5-phenyl-2,3-dihydro-1H-benzo[e][1,4]diazepin-3-yl)-ureido]-phenyl}-acetylamino)-propionamide]	80 nM
Cc1cccc(NC(=O)NC2N=C(c3cccc(OCC(=O)NCCCC(=O)NCCSCc4csc(N=C(N)N)n4)c3)c3ccccc3N(C)C2=O)c1 (centres undefined) [N-[2-(2-Guanidino-thiazol-4-ylmethylsulfanyl)-ethyl]-4-(2-{3-[1-methyl-2-oxo-3-(3-m-tolyl-ureido)-2,3-dihydro-1H-benzo[e][1,4]diazepin-5-yl]-phenoxy}-acetylamino)-butyramide]	14 nM
Cc1cccc(NC(=O)NC2N=C(c3ccccc3)c3ccccc3N(CC(=O)NCC(=O)NCCSCc3csc(N=C(N)N)n3)C2=O)c1 (centres undefined) [N-{[2-(2-Guanidino-thiazol-4-ylmethylsulfanyl)-ethylcarbamoyl]-methyl}-2-[2-oxo-5-phenyl-3-(3-m-tolyl-ureido)-2,3-dihydro-benzo[e][1,4]diazepin-1-yl]-acetamide]	370 nM
